The text below walks through data of patent publication US20150272951A1, “COMPOUNDS FOR THE TREATMENT OF LYSOSOMAL STORAGE DISEASES” (The Hospital for Sick Children, priority 2010, published 2015).

The subject of series [1] is mutant Hex A. The format is cell-based, human. The procedure:
The cells were harvested and assayed for Hex A using a fluorescent artificial substrate, MUGS. The increase in Hex A activity relative to that of untreated cells is given, i.e. no change in activity=1;
Cells were grown in the indicated concentrations of either drug for five days. The cells were harvested and assayed for Hex A activity using a fluorescent artificial substrate, MUGS. The increase in Hex A activity relative to that of untreated cells is given, i.e. no change in activity=1.
Two of the other cultures were un-genotyped infantile Tay-Sachs disease fibroblast cell lines. […] The increase in Hex A activity relative to that of untreated cells is given, i.e., no change in activity=1. The decrease in Hex A activity at high concentrations represents cell toxicity.

The target in series [2] is Hex A (Homo sapiens, UniProt P06865+P07686). Description: Hex A inhibition (IC50 from dose response curves of Hex A residual activity).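 Also: remaining Hex A enzyme activity recorded across rising inhibitor doses, with dose response curves run at pH 6.5 and again at pH 4.5.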
Sequence of Hex A (P06865 89-529): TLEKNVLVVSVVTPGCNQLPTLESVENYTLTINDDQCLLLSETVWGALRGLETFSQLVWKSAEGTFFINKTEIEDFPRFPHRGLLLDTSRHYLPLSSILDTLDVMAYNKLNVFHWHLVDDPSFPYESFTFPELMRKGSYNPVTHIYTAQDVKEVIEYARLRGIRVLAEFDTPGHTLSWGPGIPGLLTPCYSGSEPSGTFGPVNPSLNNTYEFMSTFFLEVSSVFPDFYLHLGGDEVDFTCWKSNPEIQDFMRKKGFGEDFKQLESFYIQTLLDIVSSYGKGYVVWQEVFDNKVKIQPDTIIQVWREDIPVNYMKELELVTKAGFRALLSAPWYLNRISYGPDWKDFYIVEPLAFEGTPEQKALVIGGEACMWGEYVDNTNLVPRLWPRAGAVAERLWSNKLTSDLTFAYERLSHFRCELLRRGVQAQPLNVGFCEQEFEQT
Sequence of Hex A (P07686 122-311 limits assumed): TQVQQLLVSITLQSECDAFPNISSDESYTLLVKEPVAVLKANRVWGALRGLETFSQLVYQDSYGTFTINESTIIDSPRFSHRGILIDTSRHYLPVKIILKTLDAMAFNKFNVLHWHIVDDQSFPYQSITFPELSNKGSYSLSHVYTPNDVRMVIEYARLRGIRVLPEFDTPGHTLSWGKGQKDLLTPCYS
Sequence of Hex A (P07686 315-556 limits assumed): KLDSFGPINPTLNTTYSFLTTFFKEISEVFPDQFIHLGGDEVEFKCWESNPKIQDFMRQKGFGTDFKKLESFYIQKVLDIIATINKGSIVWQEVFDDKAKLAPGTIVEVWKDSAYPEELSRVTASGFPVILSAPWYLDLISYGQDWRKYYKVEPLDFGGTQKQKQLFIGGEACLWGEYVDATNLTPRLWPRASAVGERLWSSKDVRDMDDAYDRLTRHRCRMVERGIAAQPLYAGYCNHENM
Description: The NINDS library was screened for compounds having Hex A inhibitory activity.
(§1) Experiments were performed using 1.6 mM 4-methylumbelliferone-b-N-Acetylglucosamine substrate.
Series [3] concerns the target mutant Hex A (Homo sapiens, UniProt P06865+P07686). The series is classed as cell-based. The following applies: for Max Increase: maximum increase in Hex A activity relative to untreated cells (=1); for Range of Increase: range of increase in Hex A activity. The procedure: Using the graphs of FIGS. 5-7, the EC50 values for Hex A rescue were determined as well as the maximum increase and range of increase in Hex A activity. These values are tabulated in Table 2, together with the IC50 values for Hex A inhibition that were determined in Example 3.

For series [4], the system named is patient fibroblasts. Description: Cell viability by Alamar Blue. The format is cell-based, human. The note with it: concentrations greater than 100 μM, five days of treatment. In general terms: Alamar Blue is a resazurin reagent that responds to reducing activity.
The target of series [5] is T1, HexA wt (Homo sapiens, UniProt P06865+P07686).
T1 construct: endogenous in cells; host or cells: normal fibroblasts (HexA isozyme enriched from them)
T1 sequence (P06865 89-529): as the sequence (P06865 89-529) above
T1 sequence (P07686 122-311 limits assumed): as the sequence (P07686 122-311 limits assumed) above
T1 sequence (P07686 315-556 limits assumed): as the sequence (P07686 315-556 limits assumed) above
Description: Inhibition of HexA enriched from normal fibroblasts. The series is classed as biochemical. The following applies: pH 4.5.
Description: as §1

Series [6] concerns malaria. The note with it: cited from earlier work.
The target in series [7] is HexB (Homo sapiens, UniProt P07686). Description: HexB inhibition (purified isozyme). The format is biochemical.
Sequence of HexB (P07686 122-311 limits assumed): as the sequence (P07686 122-311 limits assumed) above
Sequence of HexB (P07686 315-556 limits assumed): as the sequence (P07686 315-556 limits assumed) above
Description: as §1
Series [8] relates to lysosomal HexA. As to the kind of experiment: Intracellular hydrolysis of fluorescent GM2 ganglioside derivative in patient cells. The format is cell-based, human. The following applies: PYRdCl 11 μg/ml vs PYR 33 μg/ml, 10 days. The procedure:
Prior to evaluation of the GM2 hydrolytic activity of lysosomal HexA, cells were treated with Conduritol b-epoxide (Glucocerebrosidase inhibitor) to limit hydrolysis beyond (GlcCer) loaded with a fluorescent derivative of GM2 ganglioside for 8 hrs. Neutral glycolipids and gangliosides were separated by Folch extraction of the treated cells. Gangliosides and glycolipids were resolved by High Performance Thin Layer Chromatography and visualized by Fluorescence Imaging (Storm Imager, Molecular Devices).

In series [9] the target is T2, purified recombinant human DHFR (Homo sapiens, UniProt P00374).
T2 sequence (P00374 1-187): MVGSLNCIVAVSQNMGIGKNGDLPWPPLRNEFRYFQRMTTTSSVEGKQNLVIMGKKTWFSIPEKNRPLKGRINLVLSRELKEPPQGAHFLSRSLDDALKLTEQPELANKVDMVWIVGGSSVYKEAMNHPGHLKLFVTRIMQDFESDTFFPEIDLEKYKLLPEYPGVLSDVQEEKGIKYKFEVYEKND
As to the kind of experiment: DHFR inhibition. The series is classed as biochemical. The following applies: FIG. 13B.

Like-named read-outs stand apart in the source and are kept apart here.

For `CCc1nc(N)nc(N)c1-c1ccc(Cl)cc1` [PYR, Pyrimethamine, reference compound], the cell toxicity entry in [1] (33.33 μg/ml, five days) was “cell death was occurring”. For the same molecule, the “rescue of mutant Hex A activity compared with NGT” value in series [1] (fibroblasts expressing αG269S, four days (FIG. 1)) was “better able to rescue mutant Hex A activity”. The pKHA in [2] (pH dependence of Hex A inhibition) is given as 6.5. In [3], the “Max Increase” value stood at 2.0 and the “Range of Increase” value was found to be 4. The “Max Increase” value in series [3] (listed as PYR (vsa7)) came out at 1.4. In series [4], the “reduction of viability compared to PYRdCl treated patient fibroblasts” value was “more than 20%”.
Turning to `CCc1nc(N)nc(N)c1-c1ccccc1` [ksh3-10], the “fold increase in Hex A activity” value in series [1] (33.33 μg/ml, five days, relative to untreated cells (FIG. 5)) is 7 fold. In [1] (all Tay-Sachs cell lines tested (FIG. 5)), the “Hex A rescue response compared with PYR” value is given as “as good or a better than PYR”. The IC50 (as a rule, the concentration that gives 50% inhibition) in series [2] (read-out: IC50 (μM ± Err), Hex A inhibition, values determined in Example 3, pH not given) was found to be 32 ± 1 µM; in [2] (read-out: IC50 HexA pH 7, purified HexA, pH 7), 11 µM; in [2] (without error, pH not stated), 32 µM; in series [5] it was 27 µM; in series [7] (pH 4.5, 1.6 mM substrate, read-out: IC50 HexB pH 4.5) it was 38 µM; in series [7] (pH 7, read-out: IC50 HexB pH 7), 15 µM. For the same molecule, the 50% inhibitory concentration (IC50) in [9] came out at 0.2 µM. Besides, the “activity against malaria relative to PYR” value in series [6] is on record as “inferior activity against malaria relative to PYR”. A half-maximal response in series [3] (Hex A rescue, determined from graphs of FIGS. 5-7) (EC50) required 38.4 µM. In addition, the “fold increase in Hex A activity (rescue of mutant Hex A)” value in series [3] (concentration of 100 μM (FIGS. 6 and 7)) is recorded as around 3 fold. Moreover, the “Max Increase” value in series [3] came to 2.6. The “Range of Increase” value in [3] is listed as 4. In [8], the “intracellular hydrolysis of fluorescent GM2 ganglioside derivative” value is recorded as “greater intracellular hydrolysis”.
